# Measurements: EP4707284A1, “HETEROCYCLIC COMPOUND AND USE THEREOF” (Otsuka Pharmaceutical Co., Ltd., priority 2023, dated 2024)
# Legend:
# in vitro = assay type: cell-based, human; conditions: human; 300 µmol/L, about 24 hours, PMA-differentiated HL-60 cells, LDH activity; no-treatment group 0%, cell lysis buffer-treated group 100%; read-out: cytotoxicity (%) Evaluation compound results
# Description: An HL-60 cell line (human acute promyelocytic leukemia cells) was successively cultured in RPMI 1640 containing 20% fetal bovine serum (FBS) at 37°C in 95% atmosphere/5% CO2. Before evaluation, the cells were pre-cultured for about 72 hours in the presence of 10 nM phorbol 12-myristate 13-acetate (PMA) to induce macrophage-like differentiation.
# Evaluation compounds were dissolved in DMSO to obtain 30 mmol/L solutions (or suspensions). Each DMSO solution was diluted 100-fold with RPMI 1640 containing 2% FBS (final concentration of the compound: 300 µmol/L) to obtain a treatment solution. The culture supernatant of the differentiated HL-60 cells was removed, and each treatment solution was added and cultured for about 24 hours, followed by cytotoxicity evaluation.
# The activity of lactate dehydrogenase (LDH) was measured in the treatment solutions exposed to the cells for about 24 hours by using a commercial kit (Cytotoxicity LDH Assay Kit-WST, Dojindo Laboratories) and a plate reader (Tecan Infinite M1000). The obtained measurement values were used to calculate cytotoxicity (%) as comparison values for each evaluation compound-treated group, with the no-treatment group taken as 0% and the cell lysis buffer-treated group taken as 100%. The test was conducted in triplicate in three wells each, and the average values were used as adopted values.
# [1] = assay type: physicochemical; conditions: Tris-hydrochloric acid buffer (pH 7.5) 50 mmol/L, magnesium chloride 5 mmol/L, evaluation compound 1 µmol/L, 37°C, 60 minutes, average of duplicate
# Outline: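 Stability in buffer assessed as brexpiprazole formation: duplicate reactions at 37°C, started by adding compound to pre-warmed solution, quenched at 0 or 60 min with internal-standard-containing acetonitrile/isopropanol (4:1). Calibration curves covered 0.01, 0.1 and 1 µmol/L of compound and brexpiprazole.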
Compound,"cytotoxicity at 24 h, 300 µM (in vitro) [%]",Concentration of brexpiprazole formed [1] [nM],Concentration of evaluation compound decreased [1] [nM]
"O=c1ccc2ccc(OCCCC[N+]3(COP(=O)([O-])OCCCO)CCN(c4cccc5sccc45)CC3)cc2[nH]1 [EX 6, (4-(benzo[b]thiophen-4-yl)-1-(4-((2-oxo-1,2-dihydroquinolin-7-yl)oxy)butyl)piperazin-1-ium-1-yl)methyl (3-hydroxypropyl) phosphate]",16,0,-110
"CC(C)OCCOP(=O)([O-])OC[N+]1(CCCCOc2ccc3ccc(=O)[nH]c3c2)CCN(c2cccc3sccc23)CC1 [EX 13, (4-(benzo[b]thiophen-4-yl)-1-(4-((2-oxo-1,2-dihydroquinolin-7-yl)oxy)butyl)piperazin-1-ium-1-yl)methyl (2-isopropoxyethyl)phosphate]",-5,0,30
"O=C(OCOP(=O)([O-])OC[N+]1(CCCCOc2ccc3ccc(=O)[nH]c3c2)CCN(c2cccc3sccc23)CC1)OC1CCCCC1 [EX 19, (4-(benzo[b]thiophen-4-yl)-1-(4-((2-oxo-1,2-dihydroquinolin-7-yl)oxy)butyl)piperazin-1-ium-1-yl)methyl ((((cyclohexyloxy)carbonyl)oxy)methyl)phosphate]",16,0,-70
"CCOP(=O)([O-])OC[N+]1(CCCCOc2ccc3ccc(=O)[nH]c3c2)CCN(c2cccc3sccc23)CC1 [EX 3, (4-(benzo[b]thiophen-4-yl)-1-(4-((2-oxo-1,2-dihydroquinolin-7-yl)oxy)butyl)piperazin-1-ium-1-yl)methyl ethyl phosphate]",-7,0,10
"CCOC(=O)COP(=O)([O-])OC[N+]1(CCCCOc2ccc3ccc(=O)[nH]c3c2)CCN(c2cccc3sccc23)CC1 [EX 8, (4-(benzo[b]thiophen-4-yl)-1-(4-((2-oxo-1,2-dihydroquinolin-7-yl)oxy)butyl)piperazin-1-ium-1-yl)methyl (2-ethoxy-2-oxoethyl)phosphate]",15,10,70
"CC(C)(C)OP(=O)([O-])OC[N+]1(CCCCOc2ccc3ccc(=O)[nH]c3c2)CCN(c2cccc3sccc23)CC1 [EX 4, (4-(benzo[b]thiophen-4-yl)-1-(4-((2-oxo-1,2-dihydroquinolin-7-yl)oxy)butyl)piperazin-1-ium-1-yl)methyl tert-butyl phosphate]",-5,0,20
"O=c1ccc2ccc(OCCCC[N+]3(COP(=O)([O-])OCCO)CCN(c4cccc5sccc45)CC3)cc2[nH]1 [EX 9, (4-(benzo[b]thiophen-4-yl)-1-(4-((2-oxo-1,2-dihydroquinolin-7-yl)oxy)butyl)piperazin-1-ium-1-yl)methyl (2-hydroxyethyl)phosphate]",-2,–,–
CCOC(=O)CCCC(=O)OCOP(=O)([O-])OC[N+]1(CCCCOc2ccc3ccc(=O)[nH]c3c2)CCN(c2cccc3sccc23)CC1 [EX 68],-6,0,90
"CCCCCCCCCC(=O)OCOP(=O)([O-])OC[N+]1(CCCCOc2ccc3ccc(=O)[nH]c3c2)CCN(c2cccc3sccc23)CC1 [EX 17, (4-(benzo[b]thiophen-4-yl)-1-(4-((2-oxo-1,2-dihydroquinolin-7-yl)oxy)butyl)piperazin-1-ium-1-yl)methyl ((decanoyloxy)methyl)phosphate]",8,0,70
"CC(=O)OCCCOP(=O)([O-])OC[N+]1(CCCCOc2ccc3ccc(=O)[nH]c3c2)CCN(c2cccc3sccc23)CC1 [EX 15, 3-acetoxypropyl ((4-(benzo[b]thiophen-4-yl)-1-(4-((2-oxo-1,2-dihydroquinolin-7-yl)oxy)butyl)piperazin-1-ium-1-yl)methyl)phosphate]",3,0,0
"CCCCCC(=O)OCOP(=O)([O-])OC[N+]1(CCCCOc2ccc3ccc(=O)[nH]c3c2)CCN(c2cccc3sccc23)CC1 [EX 16, (4-(benzo[b]thiophen-4-yl)-1-(4-((2-oxo-1,2-dihydroquinolin-7-yl)oxy)butyl)piperazin-1-ium-1-yl)methyl ((hexanoyloxy)methyl)phosphate]",17,0,10
"O=c1ccc2ccc(OCCCC[N+]3(COP(=O)([O-])OCCN4CCOCC4)CCN(c4cccc5sccc45)CC3)cc2[nH]1 [EX 14, (4-(benzo[b]thiophen-4-yl)-1-(4-((2-oxo-1,2-dihydroquinolin-7-yl)oxy)butyl)piperazin-1-ium-1-yl)methyl (2-morpholinoethyl)phosphate]",-10,0,80
"CC(C)OP(=O)([O-])OC[N+]1(CCCCOc2ccc3ccc(=O)[nH]c3c2)CCN(c2cccc3sccc23)CC1 [EX 5, (4-(benzo[b]thiophen-4-yl)-1-(4-((2-oxo-1,2-dihydroquinolin-7-yl)oxy)butyl)piperazin-1-ium-1-yl)methyl isopropyl phosphate]",-4,0,70
"COCCOCCOP(=O)([O-])OC[N+]1(CCCCOc2ccc3ccc(=O)[nH]c3c2)CCN(c2cccc3sccc23)CC1 [EX 7, (4-(benzo[b]thiophen-4-yl)-1-(4-((2-oxo-1,2-dihydroquinolin-7-yl)oxy)butyl)piperazin-1-ium-1-yl)methyl (2-(2-methoxyethoxy)ethyl)phosphate]",-4,0,-60
CCCCOCCOCCOP(=O)([O-])OC[N+]1(CCCCOc2ccc3ccc(=O)[nH]c3c2)CCN(c2cccc3sccc23)CC1 [EX 99],-6,0,0
C[C@H](NP(=O)([O-])OC[N+]1(CCCCOc2ccc3ccc(=O)[nH]c3c2)CCN(c2cccc3sccc23)CC1)C(=O)OC(C)(C)C [EX 157],–,0,80
CCOCCOCCOP(=O)([O-])OC[N+]1(CCCCOc2ccc3ccc(=O)[nH]c3c2)CCN(c2cccc3sccc23)CC1 [EX 98],–,0,-20
CC(C)OC(=O)OCOP(=O)([O-])OC[N+]1(CCCCOc2ccc3ccc(=O)[nH]c3c2)CCN(c2cccc3sccc23)CC1 [EX 130],–,0,-20
O=C(CCCCCO)OCOP(=O)([O-])OC[N+]1(CCCCOc2ccc3ccc(=O)[nH]c3c2)CCN(c2cccc3sccc23)CC1 [EX 126],–,0,160
CC(C)NC(=O)CCCC(=O)OCOP(=O)([O-])OC[N+]1(CCCCOc2ccc3ccc(=O)[nH]c3c2)CCN(c2cccc3sccc23)CC1 [EX 73],–,0,130
"O=C(OCOP(=O)([O-])OC[N+]1(CCCCOc2ccc3ccc(=O)[nH]c3c2)CCN(c2cccc3sccc23)CC1)C1CCCCC1 [EX 18, (4-(benzo[b]thiophen-4-yl)-1-(4-((2-oxo-1,2-dihydroquinolin-7-yl)oxy)butyl)piperazin-1-ium-1-yl)methyl (((cyclohexanecarbonyl)oxy)methyl)phosphate]",8,0,-10
O=c1ccc2ccc(OCCCC[N+]3(COP(=O)([O-])OCCCCCCCBr)CCN(c4cccc5sccc45)CC3)cc2[nH]1 [EX 64],–,0,30
"O=c1ccc2ccc(OCCCC[N+]3(COP(=O)([O-])OCCCCCCCCO)CCN(c4cccc5sccc45)CC3)cc2[nH]1 [EX 11, (4-(benzo[b]thiophen-4-yl)-1-(4-((2-oxo-1,2-dihydroquinolin-7-yl)oxy)butyl)piperazin-1-ium-1-yl)methyl (8-hydroxyoctyl) phosphate]",–,0,30
